The text below walks through data of patent publication US8772284B2, “Method of treating cancer using combination of a bifunctional alkylating agent and DNA repair inhibitors” (Academia Sinica, priority 2009, dated 2014).

One assay concerns DNA ICLs in H460 cells. Nature of the assay: Modified comet assay, formation and repair of DNA ICLs. The format is cell-based, human. Conditions: treated 1 h. As to the method: (§1) H460 cells were treated with various concentrations of BO-1012, melphalan, or thiotepa for 1 h and then subjected to the modified comet assay as described in Materials and Methods. Percentage of DNA ICLs was calculated by the percentage of decrease in tail moment. […] H460 cells were treated with 40 μM BO-1012 for 1 h, washed, and then treated with 8 μM ATO for 16, 24, and 48 h. *, p<0.05 as compared to BO-1012 alone at the indicated time. […] H460 cells were treated with BO-1012 and ATO, alone or in combination, as described above. After treatment, the detection of γH2AX (green) immunofluorescence staining was performed as described in Materials and Methods. Nuclei were stained by DAPI (blue).
Modified Single-Cell Gel Electrophoresis (Comet) and DNA ICL Repair Assays. The formation and the repair of DNA ICLs in H460 cells was analyzed using a modified comet assay as described previously.

In a further assay the test system is CL-1-5 xenografts. Conditions: CL-1-5 xenograft; LY294002 40 mg/Kg QD×9, triciribine 1 mg/Kg Q2D×5, BO-1509 10 mg/Kg.
The test system of a further assay is NTUB1 cells. Nature of the assay: Cell viability, WST-1 assay. Type of assay: cell-based, human. Particulars: agent alone. An excerpt:
(§2) Cell Lines and Cell Culture. H460 (human lung large cell carcinoma cells), H1299 (human lung large cell carcinoma p53-deficient cells), PC3 (human prostate carcinoma cells), U87 (human glioma cells), and MCF7 (human breast carcinoma cells) were purchased from the American Type Culture Collection (Rockville, Md.). OEC-M1 (human gingival squamous cell carcinoma cells) was obtained from Dr. C.-L. Meng (National Defense Medical College, Taiwan). NTUB1 (human bladder transitional carcinoma cells) and the cisplatin-resistant sub-line NTUB1/P were provided by Dr. Y.-S. Pu (National Taiwan University Hospital, Taiwan). CL-1-5 (human lung adenocarcinoma cells) was obtained from Dr. P. C. Yang (National Taiwan University). All cell lines (except U87, which was grown in MEM medium) were cultured in RPMI1640 medium supplemented with 10% FBS and antibiotics, and incubated at 37° C. in a humidified atmosphere with 5% CO2.
(§3) Measurement of Cell Viability. Cell viability was assessed using the cell proliferation reagent WST-1 (Roche Molecular Biochemicals, Penzberg, Germany), which is a tetrazolium salt that is cleaved by mitochondrial dehydrogenase in viable cells. In brief, 2,000-7,000 cells were seeded in each well of 96-well plates and incubated at 37° C. overnight prior to drug treatment. After a 72-h incubation with BO-1012 alone (0.1˜80 μM), ATO alone (1˜8 μM), or BO-1012 plus ATO, WST-1 solution was added to each well at a 1:10 dilution, and cells were incubated at 37° C. in 5% CO2 for 4 h. Cell viability was assessed by absorbance at 460 nm using an automatic enzyme-linked immunosorbent assay (ELISA) plate reader. The IC50 value for each drug, alone or in combination, was calculated using CompuSyn software (version 1.0.1; CompuSyn, Inc.). The interactions between ATO and BO-1012 were evaluated by the Chou-Talalay combination indices (CI), where CI<1 indicates synergy; CI=1, additivity; and CI>1, antagonism.
A general note: Tetrazolium dyes change colour on reduction, which living cells bring about.

Assay [1] relates to NTUB1/P cells (cisplatin-resistant). Nature of the assay: Cell viability, WST-1 assay. Type of assay: cell-based, human. Conditions: for IC50: NTUB1/P cells, agent alone.
Text: as §2, §3

The test system of assay [2] is γH2AX nuclear foci in H460 cells. Nature of the assay: γH2AX nuclear foci, immunofluorescence staining. The format is cell-based, human. Particulars: time not stated. As to the method:
as §1
Immunofluorescence Staining. H460 cells were cultured onto slides and then treated with BO-1012 and ATO, separately and in combination as described above, for 24, 48, or 72 h. To visualize γH2AX, cells were washed with cold PBS and fixed with 100% ice-cold methanol for 30 min. Slides were washed with PBS and incubated with anti-γH2AX antibody for 2 h at room temperature followed by Alexa Fluor 488-conjugated secondary antibodies (Molecular Probes, Eugene, Oreg.) and DAPI. After mounting with 50% glycerol, slides were subjected to confocal image analysis (Radiance 2100 System, Bio-Rad). Cells with at least four γH2AX foci in nuclei were counted as positive.

The next assay deals with H460 xenografts. In words: H460 xenograft mouse model. Type of assay: in vivo, nude mice. Conditions: 2.5 mg/kg BO-1012 and/or 5 mg/kg ATO, i.v., QD×5.
The test system of another assay is NTUB1 xenografts. In words: NTUB1 xenograft mouse model. Type of assay: in vivo, nude mice. Particulars: 2.5 mg/kg BO-1012 or 5 mg/kg ATO, i.v., QD×5.
For the next assay, the system named is NTUB1/P xenografts. In words: NTUB1/P xenograft mouse model. Particulars: 5 mg/kg ATO, i.v., QD×5. Type of assay: in vivo, nude mice.
In assay [3] the test system is NTUB1/P cells (cisplatin-resistant). Particulars: NTUB1/P vs NTUB1, stated with ref [37]; cited from earlier work.

What is called IC50 is the midpoint of a concentration-inhibition curve.

Take `N[C@@H](Cc1ccc(N(CCCl)CCCl)cc1)C(=O)O` [melphalan]: the “formation of ICLs” value in the assay on DNA ICLs in H460 cells is given as “increased in a dose-dependent fashion”.

With `S=P(N1CC1)(N1CC1)N1CC1` [thiotepa], the “formation of ICLs” value in the assay with DNA ICLs in H460 cells is listed as “increased in a dose-dependent fashion”.

As to `O=c1cc(N2CCOCC2)oc2c(-c3ccccc3)cccc12` [LY294002, 2-(4-morpholinyl)-8-phenyl-chromone], in the assay with CL-1-5 xenografts, the “suppression of tumor growth” value is recorded as “unable to suppress the tumor growth at all”.

In the case of arsenic trioxide [ATO], the IC50 amounted to 400 nM with NTUB1 cells and 3.8 µM in [1]. In addition, the “fold more resistant, NTUB1/P than NTUB1 cells” value in [1] (ratio of IC50 values) turned out to be 9.5 fold. The “formation of ICLs” value in the assay with DNA ICLs in H460 cells was “did not cause ICLs”. Further, the “percentage of cells with γH2AX foci” value in [2] amounted to 26.8%. Moreover, in the assay on H460 xenografts, the “time to achieve a tumor volume of 500 mm^3” value is reported as 7.1 days. The “growth of NTUB1 tumors” value with NTUB1 xenografts is listed as “did not effectively suppress”. Further, the “growth of NTUB1/P tumors” value with NTUB1/P xenografts is “did not effectively suppress”.

`N.N.[Cl][Pt][Cl]` [cisplatin]: the IC50 was 3600 nM with NTUB1 cells and 212 µM in assay [1]. Besides, the “fold more resistant to cisplatin than the parental cells” value in assay [3] was 60 fold.
